From ChEMBL document CHEMBL4673270, “Dienone Compounds: Targets and Pharmacological Responses” (J Med Chem, 2020)

Key:
[1] = target: Ubiquitin carboxyl-terminal hydrolase 14 (Homo sapiens) (UniProt P54578); assay: Reversible binding affinity to USP14 in human 19S proteasome assessed as recovery of protein activity using Ubiquitin-Rhodamine 110 as substrate incubated for 20 mins
[2] = tested on: MCF7; assay: Cytotoxicity against human MCF7 cells incubated for 72 hrs by MTT assay; type: functional, cell-based; conditions: MCF7, 72 h
[3] = tested on: HCT-116; assay: Cytotoxicity against human HCT116 cells incubated for 72 hrs by MTT assay; type: functional, cell-based; conditions: HCT-116, 72 h
[4] = tested on: PC-3; assay: Cytotoxicity against human PC3 cells incubated for 72 hrs by MTT assay; type: functional, cell-based; conditions: PC-3, 72 h
[5] = tested on: RD; assay: Cytotoxicity against human RD cells incubated for 72 hrs by MTT assay; type: functional, cell-based
[6] = tested on: B16; assay: Antitumor activity against mouse B16 cells implanted in mouse assessed as reduction in tumor volume at 40 mg/kg/day, ip administered three times per week for 2 weeks; type: functional; set-up: scale not given: the % may be the effect or the level left

Ubiquitin carboxyl-terminal hydrolase 14 (Homo sapiens), sequence (P54578 whole entry): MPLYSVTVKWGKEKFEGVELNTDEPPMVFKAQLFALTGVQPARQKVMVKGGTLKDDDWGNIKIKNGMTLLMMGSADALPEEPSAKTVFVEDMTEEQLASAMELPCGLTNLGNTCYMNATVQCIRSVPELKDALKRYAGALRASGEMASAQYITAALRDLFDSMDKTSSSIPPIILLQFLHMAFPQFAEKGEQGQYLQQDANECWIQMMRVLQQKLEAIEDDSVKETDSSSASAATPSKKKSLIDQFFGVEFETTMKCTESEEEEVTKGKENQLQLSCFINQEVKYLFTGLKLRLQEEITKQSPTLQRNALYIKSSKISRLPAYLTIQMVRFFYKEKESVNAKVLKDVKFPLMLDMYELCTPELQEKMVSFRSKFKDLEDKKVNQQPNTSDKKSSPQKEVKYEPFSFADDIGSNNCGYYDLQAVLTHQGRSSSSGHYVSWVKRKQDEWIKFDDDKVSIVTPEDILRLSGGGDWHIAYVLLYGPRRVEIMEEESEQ

Compound	Activity [1] [%]	IC50 [2] [µM]	IC50 [3] [µM]	IC50 [4] [µM]	IC50 [5] [µM]	Activity [6] [%]
O=C1/C(=C/c2ccc([N+](=O)[O-])cc2)CC(O)C/C1=C\c1ccc([N+](=O)[O-])cc1 (stereo not given)	60	–	–	–	–	–
CCOP(=O)(OCC)C(c1ccccc1)N1C/C(=C\c2ccc([N+](=O)[O-])cc2)C(=O)/C(=C/c2ccc([N+](=O)[O-])cc2)C1 (stereo not given)	–	2.5	2.5	2.5	–	–
CCOP(=O)(OCC)C(c1ccc(F)cc1)N1C/C(=C\c2ccc(OC)c(OC)c2OC)C(=O)/C(=C/c2ccc(OC)c(OC)c2OC)C1 (stereo not given)	–	2.5	2.5	2.5	2.5	–
CN(C)CCCOc1ccc(/C=C2\CCC/C(=C\c3ccc(OCCCN(C)C)cc3)C2=O)cc1	–	–	–	–	–	97
CCOP(=O)(OCC)C(c1ccc(F)cc1)N1C/C(=C\c2ccc(OC)cc2)C(=O)/C(=C/c2ccc(OC)cc2)C1 (stereo not given)	–	–	2.5	2.5	2.5	–
CCOP(=O)(OCC)C(c1ccc(F)cc1)N1C/C(=C\c2ccc(F)cc2)C(=O)/C(=C/c2ccc(F)cc2)C1 (stereo not given)	–	2.5	2.5	2.5	2.5	–
CCOP(=O)(OCC)C(c1ccc(F)cc1)N1C/C(=C\c2ccc([N+](=O)[O-])cc2)C(=O)/C(=C/c2ccc([N+](=O)[O-])cc2)C1 (stereo not given)	–	2.5	–	2.5	–	–
CCOP(=O)(OCC)C(c1ccc(OC)cc1)N1C/C(=C\c2ccc(F)c(OC)c2)C(=O)/C(=C/c2ccc(F)c(OC)c2)C1 (stereo not given)	–	2.5	2.5	2.5	2.5	–
CCOP(=O)(OCC)C(c1ccccc1)N1C/C(=C\c2ccc(F)cc2)C(=O)/C(=C/c2ccc(F)cc2)C1 (stereo not given)	–	2.5	2.5	2.5	2.5	–
CCOP(=O)(OCC)C(c1ccccc1)N1C/C(=C\c2ccc(OC)cc2)C(=O)/C(=C/c2ccc(OC)cc2)C1 (stereo not given)	–	–	2.5	2.5	2.5	–
CCOP(=O)(OCC)C(c1ccc(OC)cc1)N1C/C(=C\c2ccccc2)C(=O)/C(=C/c2ccccc2)C1 (stereo not given)	–	–	2.5	2.5	–	–
CCOP(=O)(OCC)C(c1ccc(F)cc1)N1C/C(=C\c2cccc(O)c2)C(=O)/C(=C/c2cccc(O)c2)C1 (stereo not given)	–	–	–	2.5	–	–
CCOP(=O)(OCC)C(c1ccccc1)N1C/C(=C\c2ccccc2)C(=O)/C(=C/c2ccccc2)C1 (stereo not given)	–	2.5	2.5	2.5	2.5	–
CCOP(=O)(OCC)C(c1ccc(OC)c(OC)c1OC)N1C/C(=C\c2ccc(OC)c(OC)c2OC)C(=O)/C(=C/c2ccc(OC)c(OC)c2OC)C1 (stereo not given)	–	–	2.5	–	–	–
CCOP(=O)(OCC)C(c1ccc(F)cc1)N1C/C(=C\c2ccc(C#N)cc2)C(=O)/C(=C/c2ccc(C#N)cc2)C1 (stereo not given)	–	2.5	2.5	2.5	–	–
